Literature values in publication PMC5618191 (Toxins, 2017).

Design: method as in PMID 26892719
Settings: after three days of treatment; cited from earlier work

In the case of `CC(C)[C@H]1C(=O)O[C@H](C(C)C)C(=O)N(C)[C@@H](C(C)C)C(=O)O[C@H](C(C)C)C(=O)N(C)[C@@H](C(C)C)C(=O)O[C@H](C(C)C)C(=O)N1C` [ENN B, enniatin B], the Metabolites in mice is listed as “three phase I metabolites”.
